# System: human umbilical cord vessel rings
# Assay: Human angiogenesis assay (umbilical artery vessel rings in Matrigel)
# Format: cell-based
# Conditions: for Microvessel Growth (% Inhibition): vs 0.1% DMSO, three weeks, average of two rings
# Text: Fresh human umbilical cords were collected by trained medical personnel under fill donor informed consent from local hospitals. The cords were transported and treated within three hours. Umbilical cords and vessel lumens were rinsed with chilled basal nutrient medium. The artery was removed from the cord using mechanical means, forceps and small surgical scissors in an aseptic field. The vessel was cleaned of connective tissue and vessel rings were cut cross-wise in a length of 1 mm. The rings were placed into EGM-2 medium (Clonetics Corp.) in a 50 ml conical bottom tube and stored at 4° C. Six-well tissue culture plates were covered with […] of Matrigel and allowed to gel for 30-45 min at 37° C., under 5% CO2. The vessel rings were rinsed in EGM-2 medium and placed on the Matrigel-coated wells, covered with additional 250 μl Matrigel, and allowed to gel for 30-45 min at 37° C. (see FIG. 6). The vessels were cultured for 24 hours in 4 ml of EGM-2 to allow the tissue to adapt to its new environment. After 24 hours incubation, the rings were treated either with 0.1% DMSO as control, or different concentrations of compounds (thalidomide or CC4047). Culture medium was changed twice per week for total of three weeks.
# The effects of compounds on cultured vessel rings were compared with the effect of DMSO on vessel rings. The results were analyzed using Image-Pro® Plus software (MediaCybernetics, Inc. Carlsbad, Calif.).
# These experiments were done in duplicates and the results are the average of two rings in same experiment. A different concentration of Fumagillin is used as positive control in this experiment.
structure (smiles),measurement,setting,value
"O=C1CCC(N2C(=O)c3ccccc3C2=O)C(=O)N1 (centres unmarked) [Thalomid, thalidomide, reference compound]",Microvessel Growth (% Inhibition),0..1 μM,40 % Inhibition
same,Microvessel Growth (% Inhibition),1 μM,81.4 % Inhibition
same,Microvessel Growth (% Inhibition),10 μM,100 % Inhibition
same,formation of microvessel outgrowth,compared with DMSO treated samples,inhibited the formation of microvessel outgrowth in a dose dependent manner
same,need of microsomes for activity,"human ring assay, compared with rat ring results",no need for either human or rabbit microsome
